How the values were obtained:
Type in all cases: in vivo
[1] = system: soybean (Glycine max L., var. Pella 86, SOY); experiment: Pre-emerge greenhouse test, crop damage rating; set-up: key to SOY crop damage rating: 0 = no damage, 100 = complete death of all plants; conditions: 14 days after application, rating scale 0-100
Summary of the method: (§1)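 Visual 0–100 injury rating (100 = all plants dead) taken 14 days after treatment. Rates of 125–1000 g ai/ha in acetone, 187 l/ha, were sprayed onto soil one day post-sowing; pots were surface-watered to incorporate, then bottom-watered.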

[2] = system: field corn (Zea mays L., var. Dekalb 535, CORN); experiment: Pre-emerge greenhouse test, crop damage rating; conditions: 14 days after application, rating scale 0-100
Summary of the method: as §1

[3] = system: upland rice (Oryza sp., var.Tebonnet, RICE); experiment: Pre-emerge greenhouse test, crop damage rating; conditions: 14 days after application, rating scale 0-100
Summary of the method: as §1

[4] = system: green foxtail (Setaria viridis, SETVI); experiment: Post-emerge greenhouse herbicide test, phytotoxicity rating; conditions: 14 days after application; for phytotoxicity rating SETVI: scale 0-100
Summary of the method: (§2)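 Scores use a 0 (no damage) to 100 (complete kill) scale, taken 14 days after a foliar spray. Acetone solutions with 0.25% v/v non-ionic surfactant were applied by track sprayer at 187 l/ha and 63-1000 g ai/ha to bottom-watered 2-3 leaf plants.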

[5] = system: large crabgrass (Digitaria sanguinalis, DIGSA); experiment: as above; conditions: 14 days after application; for phytotoxicity rating DIGSA: scale 0-100
Summary of the method: as §2

[6] = system: lambsquarters (Chenopodium album, CHEAL); experiment: as above; conditions: 14 days after application; for phytotoxicity rating CHEAL: scale 0-100
Summary of the method: as §2

[7] = system: redroot pigweed (Amaranthus retroflexus, AMARE); experiment: as above; conditions: 14 days after application; for phytotoxicity rating AMARE: scale 0-100
Summary of the method: as §2

[8] = system: velvetleaf (Abutilon theophrasti, ABUTH); experiment: as above; conditions: 14 days after application; for phytotoxicity rating ABUTH: scale 0-100
Summary of the method: as §2

[9] = system: ivyleaf morningglory (Ipomoea hederacea, IPOHE); experiment: as above; conditions: 14 days after application; for phytotoxicity rating IPOHE: scale 0-100
Summary of the method: as §2

[10] = system: barnyardgrass (Echinochloa crusgalli, ECHCG); experiment: as above; conditions: 14 days after application; for phytotoxicity rating ECHCG: scale 0-100
Summary of the method: as §2

[11] = system: Johnsongrass (Sorghum halepense, SORHA); experiment: as above; conditions: 14 days after application; for phytotoxicity rating SORHA: scale 0-100
Summary of the method: as §2

[12] = system: green foxtail (Setaria viridis, SETVI); experiment: Pre-emerge greenhouse herbicide test, phytotoxicity rating; conditions: 14 days after application, rating scale 0-100
Summary of the method: as §1

[13] = system: large crabgrass (Digitaria sanguinalis, DIGSA); experiment: as above; conditions: 14 days after application, rating scale 0-100
Summary of the method: as §1

[14] = system: common ragweed (Ambrosia artemisiifolia L., AMBEL); experiment: as above; conditions: 14 days after application, rating scale 0-100
Summary of the method: as §1

[15] = system: lambsquarters (Chenopodium album, CHEAL); experiment: as above; conditions: 14 days after application, rating scale 0-100
Summary of the method: as §1

[16] = system: redroot pigweed (Amaranthus retroflexus, AMARE); experiment: as above; conditions: 14 days after application, rating scale 0-100
Summary of the method: as §1

[17] = system: velvetleaf (Abutilon theophrasti, ABUTH); experiment: as above; conditions: 14 days after application, rating scale 0-100
Summary of the method: as §1

[18] = system: ivyleaf morningglory (Ipomoea hederacea, IPOHE); experiment: as above; conditions: 14 days after application, rating scale 0-100
Summary of the method: as §1

[19] = system: sicklepod (Cassia obtusifolia, CASOB); experiment: as above; conditions: 14 days after application, rating scale 0-100
Summary of the method: as §1

[20] = system: barnyardgrass (Echinochloa crusgalli, ECHCG); experiment: as above; conditions: 14 days after application, rating scale 0-100
Summary of the method: as §1

[21] = system: Johnsongrass (Sorghum halepense, SORHA); experiment: as above; conditions: 14 days after application, rating scale 0-100
Summary of the method: as §1

[22] = system: soybean (Glycine max L., var. Pella 86, SOY); experiment: Post-emerge greenhouse test, crop damage rating; set-up: key to crop damage rating SOY: 0-100 scale: 0 = no damage, 100 = complete death of all plants; conditions: 14 days after application; for crop damage rating SOY: scale 0-100
Summary of the method: as §2

[23] = system: field corn (Zea mays L., var. Dekalb 535, CORN); experiment: Post-emerge greenhouse test, crop damage rating; conditions: 14 days after application; for crop damage rating CORN: scale 0-100
Summary of the method: as §2

[24] = system: upland rice (Oryza sp., var.Tebonnet, RICE); experiment: Post-emerge greenhouse test, crop damage rating; conditions: 14 days after application; for crop damage rating RICE: scale 0-100
Summary of the method: as §2

[25] = system: common ragweed (Ambrosia artemisiifolia L., AMBEL); experiment: Post-emerge greenhouse herbicide test, phytotoxicity rating; conditions: 14 days after application; for phytotoxicity rating AMBEL: scale 0-100
Summary of the method: as §2

With `O=c1n(CCCF)nnn1-c1cc(Oc2ncccn2)c(Cl)cc1Cl` [Compound 6-14] the “crop damage rating SOY” value ([1]; 125 g ai/ha) was 10, the “crop damage rating SOY” value ([1]; 500 g ai/ha) was 80 and the “crop damage rating CORN” value ([2]; 125 g ai/ha) was 20. The “crop damage rating CORN” value ([2]; 500 g ai/ha) was 40, the “crop damage rating RICE” value ([3]; 125 g ai/ha) was 30 and the “crop damage rating RICE” value ([3]; 500 g ai/ha) was 80. For the same compound, the “SETVI phytotoxicity rating (0-100)” value ([4]; 63 g al/ha) was 0, the “SETVI phytotoxicity rating (0-100)” value ([4]; 500 g al/ha) was 70 and the “DIGSA phytotoxicity rating (0-100)” value ([5]; 63 g al/ha) was 0. The “DIGSA phytotoxicity rating (0-100)” value ([5]; 500 g al/ha) was 30, the “CHEAL phytotoxicity rating (0-100)” value ([6]; 63 g al/ha) was 70 and the “CHEAL phytotoxicity rating (0-100)” value ([6]; 500 g al/ha) was 95. For the same compound, the “AMARE phytotoxicity rating (0-100)” value ([7]; 63 g al/ha) was 20, the “AMARE phytotoxicity rating (0-100)” value ([7]; 500 g al/ha) was 100 and the “ABUTH phytotoxicity rating (0-100)” value ([8]; 63 g al/ha) was 70. For the same compound, the “ABUTH phytotoxicity rating (0-100)” value ([8]; 500 g al/ha) was 100, the “IPOHE phytotoxicity rating (0-100)” value ([9]; 63 g al/ha) was 50 and the “IPOHE phytotoxicity rating (0-100)” value ([9]; 500 g al/ha) was 100. The “ECHCG phytotoxicity rating (0-100)” value ([10]; 63 g al/ha) was 0, the “ECHCG phytotoxicity rating (0-100)” value ([10]; 500 g al/ha) was 60 and the “SORHA phytotoxicity rating (0-100)” value ([11]; 63 g al/ha) was 30. For the same compound, the “SORHA phytotoxicity rating (0-100)” value ([11]; 500 g al/ha) was 90, the “phytotoxicity rating SETVI” value ([12]; 125 g ai/ha) was 100 and the “phytotoxicity rating SETVI” value ([12]; 500 g ai/ha) was 100. For the same compound, the “phytotoxicity rating DIGSA” value ([13]; 125 g ai/ha) was 90, the “phytotoxicity rating DIGSA” value ([13]; 500 g ai/ha) was 100 and the “phytotoxicity rating AMBEL” value ([14]; 125 g ai/ha) was 20. For the same compound, the “phytotoxicity rating AMBEL” value ([14]; 500 g ai/ha) was 95, the “phytotoxicity rating CHEAL” value ([15]; 125 g ai/ha) was 100 and the “phytotoxicity rating CHEAL” value ([15]; 500 g ai/ha) was 100. The “phytotoxicity rating AMARE” value ([16]; 125 g ai/ha) was 100, the “phytotoxicity rating AMARE” value ([16]; 500 g ai/ha) was 100 and the “phytotoxicity rating ABUTH” value ([17]; 125 g ai/ha) was 100. For the same compound, the “phytotoxicity rating ABUTH” value ([17]; 500 g ai/ha) was 100, the “phytotoxicity rating IPOHE” value ([18]; 125 g ai/ha) was 60 and the “phytotoxicity rating IPOHE” value ([18]; 500 g ai/ha) was 95. The “phytotoxicity rating CASOB” value ([19]; 125 g ai/ha) was 60, the “phytotoxicity rating CASOB” value ([19]; 500 g ai/ha) was 90 and the “phytotoxicity rating ECHCG” value ([20]; 125 g ai/ha) was 60. The “phytotoxicity rating ECHCG” value ([20]; 500 g ai/ha) was 99, the “phytotoxicity rating SORHA” value ([21]; 125 g ai/ha) was 80 and the “phytotoxicity rating SORHA” value ([21]; 500 g ai/ha) was 100. For the same compound, the “SOY crop damage rating (0-100)” value ([22]; 63 g al/ha) was 50, the “SOY crop damage rating (0-100)” value ([22]; 500 g al/ha) was 90 and the “CORN crop damage rating (0-100)” value ([23]; 63 g al/ha) was 0. For the same compound, the “CORN crop damage rating (0-100)” value ([23]; 500 g al/ha) was 20, the “RICE crop damage rating (0-100)” value ([24]; 63 g al/ha) was 20 and the “RICE crop damage rating (0-100)” value ([24]; 500 g al/ha) was 50. For the same compound, the “AMBEL phytotoxicity rating (0-100)” value ([25]; 63 g al/ha) was 0 and the “AMBEL phytotoxicity rating (0-100)” value ([25]; 500 g al/ha) was 50.

With `Nc1ccc(Oc2cc(-n3c(=O)n4n(c3=S)CCCC4)c(F)cc2Cl)nc1` [Compound 8-24] the “SOY crop damage rating” value ([1]; Rate 125 g al/ha) was 0, the “SOY crop damage rating” value ([1]; Rate 500 g al/ha) was 30 and the “CORN crop damage rating” value ([2]; Rate 125 g al/ha) was 0. The “CORN crop damage rating” value ([2]; Rate 500 g al/ha) was 0, the “RICE crop damage rating” value ([3]; Rate 125 g al/ha) was 0 and the “RICE crop damage rating” value ([3]; Rate 500 g al/ha) was 20. The “phytotoxicity rating SETVI” value ([4]; rate 63 g ai/ha) was 0, the “phytotoxicity rating SETVI” value ([4]; rate 500 g ai/ha) was 20 and the “phytotoxicity rating DIGSA” value ([5]; rate 63 g ai/ha) was 50. For the same compound, the “phytotoxicity rating DIGSA” value ([5]; rate 500 g ai/ha) was 20, the “phytotoxicity rating CHEAL” value ([6]; rate 63 g ai/ha) was 50 and the “phytotoxicity rating CHEAL” value ([6]; rate 500 g ai/ha) was 80. The “phytotoxicity rating AMARE” value ([7]; rate 63 g ai/ha) was 100, the “phytotoxicity rating AMARE” value ([7]; rate 500 g ai/ha) was 100 and the “phytotoxicity rating ABUTH” value ([8]; rate 63 g ai/ha) was 95. For the same compound, the “phytotoxicity rating ABUTH” value ([8]; rate 500 g ai/ha) was 100, the “phytotoxicity rating IPOHE” value ([9]; rate 63 g ai/ha) was 70 and the “phytotoxicity rating IPOHE” value ([9]; rate 500 g ai/ha) was 80. The “phytotoxicity rating ECHCG” value ([10]; rate 63 g ai/ha) was 10, the “phytotoxicity rating ECHCG” value ([10]; rate 500 g ai/ha) was 0 and the “phytotoxicity rating SORHA” value ([11]; rate 63 g ai/ha) was 0. The “phytotoxicity rating SORHA” value ([11]; rate 500 g ai/ha) was 50, the SETVI phytotoxicity rating ([12]; Rate 125 g al/ha) was 30 and the SETVI phytotoxicity rating ([12]; Rate 500 g al/ha) was 80. It also gave a DIGSA phytotoxicity rating ([13]; Rate 125 g al/ha) of 0, a DIGSA phytotoxicity rating ([13]; Rate 500 g al/ha) of 30 and an AMBEL phytotoxicity rating ([14]; Rate 125 g al/ha) of 80. It also gave an AMBEL phytotoxicity rating ([14]; Rate 500 g al/ha) of 100, a CHEAL phytotoxicity rating ([15]; Rate 125 g al/ha) of 99 and a CHEAL phytotoxicity rating ([15]; Rate 500 g al/ha) of 100. It also gave an AMARE phytotoxicity rating ([16]; Rate 125 g al/ha) of 95, an AMARE phytotoxicity rating ([16]; Rate 500 g al/ha) of 100 and an ABUTH phytotoxicity rating ([17]; Rate 125 g al/ha) of 100. For the same compound, the ABUTH phytotoxicity rating ([17]; Rate 500 g al/ha) was 100, the IPOHE phytotoxicity rating ([18]; Rate 125 g al/ha) was 0 and the IPOHE phytotoxicity rating ([18]; Rate 500 g al/ha) was 70. For the same compound, the CASOB phytotoxicity rating ([19]; Rate 125 g al/ha) was 70, the CASOB phytotoxicity rating ([19]; Rate 500 g al/ha) was 50 and the ECHCG phytotoxicity rating ([20]; Rate 125 g al/ha) was 0. The ECHCG phytotoxicity rating ([20]; Rate 500 g al/ha) was 40, the SORHA phytotoxicity rating ([21]; Rate 125 g al/ha) was 20 and the SORHA phytotoxicity rating ([21]; Rate 500 g al/ha) was 20. The “crop damage rating SOY” value ([22]; rate 63 g ai/ha) was 0, the “crop damage rating SOY” value ([22]; rate 500 g ai/ha) was 40 and the “crop damage rating CORN” value ([23]; rate 63 g ai/ha) was 10. The “crop damage rating CORN” value ([23]; rate 500 g ai/ha) was 10, the “crop damage rating RICE” value ([24]; rate 63 g ai/ha) was 20 and the “crop damage rating RICE” value ([24]; rate 500 g ai/ha) was 30. The “phytotoxicity rating AMBEL” value ([25]; rate 63 g ai/ha) was 0 and the “phytotoxicity rating AMBEL” value ([25]; rate 500 g ai/ha) was 50.
